The target of one series is T1, rat 17β-HSD1 (Rattus norvegicus, UniProt P51657).
T1 construct: made in house; host or cells: HEK293 cells, transient transfection; 1,000 g supernatant of the cell lysate
T1 sequence (P51657 1-344): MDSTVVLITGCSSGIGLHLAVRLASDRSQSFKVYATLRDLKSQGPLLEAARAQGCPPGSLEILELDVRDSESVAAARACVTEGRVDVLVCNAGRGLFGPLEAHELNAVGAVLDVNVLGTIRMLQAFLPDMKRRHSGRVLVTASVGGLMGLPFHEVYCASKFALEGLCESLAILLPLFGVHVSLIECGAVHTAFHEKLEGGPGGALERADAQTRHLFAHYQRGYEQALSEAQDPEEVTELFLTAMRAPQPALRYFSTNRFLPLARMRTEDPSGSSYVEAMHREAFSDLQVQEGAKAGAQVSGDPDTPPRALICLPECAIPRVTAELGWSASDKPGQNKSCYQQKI
Nature of the series: Inhibition of rat 17β-HSD1 (recombinant, HEK293 lysate). The class given is biochemical. As to conditions: Cmpd conc. 250 nM; read-out: % Inhibition r17β-HSD1.

For a further series, the target named is T2, mouse 17β-HSD1 (Mus musculus, UniProt P51656).
T2 construct: made in house; host or cells: HEK293 cells, transient transfection; 1,000 g supernatant of the cell lysate
T2 sequence (P51656 1-344): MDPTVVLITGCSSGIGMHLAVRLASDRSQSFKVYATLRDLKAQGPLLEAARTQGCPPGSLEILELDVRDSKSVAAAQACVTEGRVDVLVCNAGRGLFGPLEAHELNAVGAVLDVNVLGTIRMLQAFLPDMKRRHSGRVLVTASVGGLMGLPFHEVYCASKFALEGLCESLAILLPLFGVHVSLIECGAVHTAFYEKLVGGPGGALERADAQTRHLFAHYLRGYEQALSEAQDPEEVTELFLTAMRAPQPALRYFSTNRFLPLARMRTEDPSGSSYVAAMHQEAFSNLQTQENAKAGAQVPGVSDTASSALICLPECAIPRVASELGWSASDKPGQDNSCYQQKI
The series can be described thus: Inhibition of mouse 17β-HSD1 (recombinant, HEK293 lysate). The class given is biochemical.

In the next series the target is T3, mouse 17β-HSD2 (Mus musculus, UniProt P51658).
T3 construct: The pellet fractions containing the microsomal 17β-HSD2 were used for the determination of E1 formation; from tissue; host or cells: mouse liver, microsomal fraction
T3 sequence (P51658 1-381): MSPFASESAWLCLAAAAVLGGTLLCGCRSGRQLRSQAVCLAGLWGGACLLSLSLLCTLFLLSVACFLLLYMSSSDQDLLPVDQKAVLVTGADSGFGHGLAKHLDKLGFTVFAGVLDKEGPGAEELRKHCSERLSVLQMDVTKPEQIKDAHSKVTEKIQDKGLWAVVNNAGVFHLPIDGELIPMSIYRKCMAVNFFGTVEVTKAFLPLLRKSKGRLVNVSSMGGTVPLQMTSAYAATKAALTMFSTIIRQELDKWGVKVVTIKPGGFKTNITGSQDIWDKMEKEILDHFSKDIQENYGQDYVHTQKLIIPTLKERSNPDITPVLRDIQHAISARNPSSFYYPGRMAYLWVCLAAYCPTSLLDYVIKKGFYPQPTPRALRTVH
The series can be described thus: Inhibition of mouse 17β-HSD2 (liver microsomal fraction). As to conditions: for inhibition at 0.1 µM: read-out: % inhibition m17β-HSD2 @ 100 nM; for pIC50: read-out: IC50 m17β-HSD2; for inhibition at 0.05 µM: read-out: % inhibition m17β-HSD2 @ 50 nM. The class given is biochemical. Background: Microsomes from liver hold many membrane-bound enzymes, among them those of drug oxidation.

In the next series the target is T4, human 17β-HSD2 (Homo sapiens, UniProt P37059).
T4 construct: 17β-HSD2 was obtained from the microsomal fraction; from tissue; host or cells: human placenta, microsomal fraction
T4 sequence (P37059 1-387): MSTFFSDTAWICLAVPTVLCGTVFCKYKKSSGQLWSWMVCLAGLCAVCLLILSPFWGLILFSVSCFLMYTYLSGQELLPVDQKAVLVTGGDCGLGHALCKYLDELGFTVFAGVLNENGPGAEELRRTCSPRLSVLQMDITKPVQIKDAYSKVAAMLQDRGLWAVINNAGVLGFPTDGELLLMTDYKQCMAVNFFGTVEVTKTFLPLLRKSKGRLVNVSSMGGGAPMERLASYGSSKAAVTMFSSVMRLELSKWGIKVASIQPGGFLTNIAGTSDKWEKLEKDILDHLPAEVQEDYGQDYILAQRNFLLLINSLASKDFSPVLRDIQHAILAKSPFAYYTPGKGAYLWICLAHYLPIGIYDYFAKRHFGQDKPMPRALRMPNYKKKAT
Nature of the series: Inhibition of human 17β-HSD2 (conversion of [3H]-E2 to E1). The class given is biochemical. As to conditions: for IC50: read-out: IC50 [nM] h17β-HSD2; for inhibition at 0.01 µM: read-out: % inhibition h17β-HSD2 @ 10 nM.

In the next series the target is T5, human 17β-HSD1 (Homo sapiens, UniProt P14061).
T5 construct: For the partial purification of 17β-HSD1, the cytosolic fraction was precipitated with ammonium sulfate; from tissue; host or cells: human placenta, cytosolic fraction, ammonium sulfate precipitate
T5 sequence (P14061 1-328): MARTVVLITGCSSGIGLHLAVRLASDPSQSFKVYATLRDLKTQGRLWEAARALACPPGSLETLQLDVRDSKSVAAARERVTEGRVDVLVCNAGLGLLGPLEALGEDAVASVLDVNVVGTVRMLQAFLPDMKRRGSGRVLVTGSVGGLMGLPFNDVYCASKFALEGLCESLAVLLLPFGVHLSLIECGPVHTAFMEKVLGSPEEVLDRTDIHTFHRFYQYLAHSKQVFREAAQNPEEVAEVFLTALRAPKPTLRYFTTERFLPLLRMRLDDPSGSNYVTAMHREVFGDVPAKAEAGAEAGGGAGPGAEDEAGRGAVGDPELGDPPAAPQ
Nature of the series: Inhibition of human 17β-HSD1 (conversion of [3H]-E1 to E2, HPLC radioflow detection). The class given is biochemical. Conditions: for IC50: human placental cytosolic enzyme, E1 500 nM, NADH, Tables 1, 4-11, read-out: IC50 [nM] h17β-HSD1; for inhibition at 0.01 µM: read-out: % inhibition h17β-HSD1 @ 10 nM.

Another series is described as follows: in vitro. As to conditions: human, pooled human liver S9 fraction.
The conditions of series [1]: human liver S9, 1 mg/mL; unit not given.
The mark [2] stands for this setting: read-out: % inhibition m17β-HSD1 @ 1 μM.
Setting [3] is: read-out: Inhibition @ 1 μM m17β-HSD1.
Where [4] appears, read: read-out: % inhibition m17β-HSD2 @ 1 μM.

pIC50: −log10 of the molar value. Where two headings read alike, the source gives them in different places.

As usually defined, the inhibition is the drop in the measured response relative to a control, in per cent. On to `Nc1cccc(-c2ccc(C(=O)c3c(F)ccc(O)c3F)s2)c1` [Compound 1, [5-(3-Aminophenyl)thiophen-2-yl](2,6-difluoro-3-hydroxyphenyl)methanone], for which the inhibition at […] at rat 17β-HSD1 is 51%. Also, the inhibition at 1 µM on mouse 17β-HSD1 (setting [2]) and on mouse 17β-HSD1 (setting [3]) was 30% each time.

A word on the IC50: it is the concentration that gives 50% inhibition. For `COc1c(Cl)cc(-c2ccc(C(=O)c3c(F)ccc(O)c3F)s2)cc1Cn1ccnn1` [Compound 31, [5-(3-Chloro-4-methoxy-5-[1,2,3]triazol-1-ylmethyl-phenyl)-thiophen-2-yl]-(2,6-difluoro-3-hydroxy-phenyl)-methanone], the inhibition at 1 µM at mouse 17β-HSD2 (read-out: Inhibition @ 1 μM m17β-HSD2) was 84%; on mouse 17β-HSD1 (setting [3]), 32%. In addition, on rat 17β-HSD1, the inhibition at […] is 39%. The IC50 at human 17β-HSD2 turned out to be 9 nM; at human 17β-HSD1, 2.1 nM.

Regarding `NC(=O)c1cccc(-c2ccc(C(=O)c3cc(F)c(F)c(O)c3F)s2)c1` [Compound 44, 3-(5-(2,4,5-Trifluoro-3-hydroxybenzoyl)thiophen-2-yl)benzamide], the inhibition at 0.1 µM was found to be 19% at mouse 17β-HSD2 and 10% at mouse 17β-HSD1 (read-out: % inhibition m17β-HSD1 @ 100 nM, compound 100 nM). In addition, the IC50 turned out to be 6.8 nM on human 17β-HSD2 and 22.4 nM on human 17β-HSD1.

By pIC50 is commonly meant the negative decadic logarithm of the IC50, by convention in mol/L. A word on the half-life: it is the time needed for the level to fall by half in the phase considered. High values mean slow loss, low ones fast loss. As to `COc1c(Cl)cc(-c2ccc(C(=O)c3cc(F)c(F)c(O)c3F)s2)cc1Cl` [Compound 45, (5-(3,5-Dichloro-4-methoxyphenyl)thiophen-2-yl)(2,4,5-trifluoro-3-hydroxyphenyl)methanone], the pIC50 on mouse 17β-HSD2 was 7.05; on mouse 17β-HSD1 (recombinant mouse enzyme, E1 10 nM, NADPH, read-out: IC50 m17β-HSD1), 5.76. Moreover, the IC50 stood at 2.6 nM on human 17β-HSD2 and 0.6 nM on human 17β-HSD1. In addition, in the series “in vitro”, the half-life at 1 µM came to 15 min.

Regarding `COc1c(C)cc(-c2ccc(C(=O)c3cc(F)c(F)c(O)c3F)s2)cc1C` [Compound 46, (5-(4-Methoxy-3,5-dimethylphenyl)thiophen-2-yl)(2,4,5-trifluoro-3-hydroxyphenyl)methanone], on mouse 17β-HSD2, the inhibition at 0.1 µM is 16%. Further, the figures for the IC50 at human 17β-HSD2 and on human 17β-HSD1 were 2.3 nM and 1.2 nM, respectively. For the same compound, at mouse 17β-HSD1 (setting [3]), the inhibition at 1 µM was 13.4%.

Regarding `O=C(c1ccc(-c2cccc(CO)c2)s1)c1cc(F)c(F)c(O)c1F` [Compound 47, (5-(3-(Hydroxymethyl)phenyl)thiophen-2-yl)(2,4,5-trifluoro-3-hydroxyphenyl)methanone], the pIC50 at mouse 17β-HSD2 is 6.59. In addition, the IC50 at human 17β-HSD2 was 4.4 nM; at human 17β-HSD1, 5.9 nM. At mouse 17β-HSD1 (setting [3]), the inhibition at 1 µM came to 13.8%.

As for `Cn1cnc(S(=O)(=O)Nc2cccc(-c3ccc(C(=O)c4cc(F)c(F)c(O)c4F)s3)c2)c1` [Compound 48, 1-Methyl-N-(3-(5-(2,4,5-trifluoro-3-hydroxybenzoyl)thiophen-2-yl)phenyl)-1H-imidazole-4-sulfonamide], the pIC50 on mouse 17β-HSD2 is 6.81. Moreover, on human 17β-HSD1, the IC50 was determined as 21 nM. In addition, in the series “in vitro”, the half-life at 1 µM was 24.9 min. In addition, the inhibition at 1 µM at mouse 17β-HSD1 (setting [3]) was found to be 12.1%. In series [1], this compound registered a CLint of 27.9.

As for `Cc1c(N)cccc1-c1ccc(C(=O)c2cc(F)c(F)c(O)c2F)s1` [Compound 58, (5-(3-Amino-2-methylphenyl)thiophen-2-yl)(2,4,5-trifluoro-3-hydroxyphenyl)methanone], the inhibition at 0.05 µM on mouse 17β-HSD2 is 40%. Further, the inhibition at 0.01 µM came to 61% on human 17β-HSD2 and 1.1% at human 17β-HSD1. In addition, the half-life at 1 µM in the series “in vitro” was 20.8 min. In series [1], the CLint was 33.3.

In the case of `O=C(c1ccc(-c2cccc3[nH]ccc23)s1)c1cc(F)c(F)c(O)c1F` [Compound 62, (5-(1H-Indol-4-yl)thiophen-2-yl)(2,4,5-trifluoro-3-hydroxyphenyl)methanone], at mouse 17β-HSD2, the inhibition at 0.05 µM turned out to be 46%. Also, the figures for the inhibition at 0.01 µM on human 17β-HSD2 and at human 17β-HSD1 were 100% and 93%, respectively. In “in vitro”, the half-life at 1 µM turned out to be 48.9 min. This compound also gave a CLint in series [1] of 14.2.

As for `CS(=O)(=O)Nc1cccc(-c2ccc(C(=O)c3cc(F)c(F)c(O)c3F)s2)c1` [Compound 63, N-(3-(5-(2,4,5-trifluoro-3-hydroxybenzoyl)thiophen-2-yl)phenyl)methanesulfonamide], the inhibition at 0.05 µM on mouse 17β-HSD2 came to 38%. The results for the inhibition at 0.01 µM at human 17β-HSD2 and on human 17β-HSD1 were 77% and 53%, respectively. The compound further registered a half-life at 1 µM in the series “in vitro” of 25 min. The CLint in series [1] is recorded as 27.7.

With `O=C(c1ccc(-c2ccc(O)cc2)s1)c1cc(F)c(F)c(O)c1F` [Compound 68, (5-(4-Hydroxyphenyl)thiophen-2-yl)(2,4,5-trifluoro-3-hydroxyphenyl)methanone], the inhibition at 0.05 µM at mouse 17β-HSD2 was 42%. Further, the inhibition at 0.01 µM is 96% on human 17β-HSD2 and 66% at human 17β-HSD1. Further, in the series “in vitro”, the half-life at 1 µM is 27.4 min. The compound also yielded a CLint in series [1] of 25.3.

Regarding `Cc1cc(-c2ccc(C(=O)c3cccc(O)c3Cl)s2)cc(C)c1O` [Compound 79, (2-Chloro-3-hydroxyphenyl)(5-(4-hydroxy-3,5-dimethylphenyl)thiophen-2-yl)methanone], the inhibition at 0.05 µM on mouse 17β-HSD2 came to 70%. In addition, the inhibition at 0.01 µM was 64% on human 17β-HSD2 and 31% at human 17β-HSD1. In “in vitro”, the half-life at 1 µM is 22 min. Also, in series [1], the CLint is given as 31.6.

As for `O=C(c1cccc(O)c1)c1ccc(-c2ccc(O)c(Cl)c2)s1` [D, reference compound], the inhibition at 1 µM on mouse 17β-HSD2 (setting [4]) is 9%; at mouse 17β-HSD1 (setting [2]), 42%. In addition, the negative logarithm of the IC50 (pIC50) against human 17β-HSD2 was 6.62. Also, on human 17β-HSD1, the IC50 stood at 5 nM.

In the case of `Cc1c(O)cccc1C(=O)c1ccc(-c2ccc(O)c(Cl)c2)s1` [E, reference compound], the inhibition at 1 µM turned out to be 92% on mouse 17β-HSD2 (setting [4]), 93% at human 17β-HSD2 (read-out: % inhibition h17β-HSD2 @ 1 μM), 76% on human 17β-HSD1 (read-out: % inhibition h17β-HSD1 @ 1 μM) and 14% on mouse 17β-HSD1 (setting [2]).

As for `Cc1cc(-c2ccc(C(=O)c3cccc(O)c3C)s2)cc(C)c1O` [G, reference compound], the pIC50 at mouse 17β-HSD2 is 6.26. The IC50 on human 17β-HSD2 came to 239 nM; at human 17β-HSD1 it was 899 nM; on mouse 17β-HSD1 (Table 7, unit μM, read-out: IC50 m17β-HSD1), 35.5 µM.

These data come from patent publication US9884839B2, “Inhibitors of 17Beta-hydroxysteroid dehydrogenases type 1 and type 2” (ElexoPharm GmbH, priority 2014, dated 2018).
